The subject of series [1] is EV-A71 proteins, VP2 and VP0. Nature of the series: SDS-PAGE and Western blot of EV-A71 proteins. In kind it is cell-based, human enterovirus A71 (EV-A71) strain 41. Conditions: 6 h. The procedure: Since ZAF-47 possibly targets EV-A71 post-entry stages, we were interested in looking at the effect of ZAF-47 on EV-A71 protein expression. To do so, we first infected RD cells with EV-A71. We then treated the infected cells with different concentration of ZAF-47 for 6 h and collected the cell lysates for SDE-PAGE and Western blot. […] Since ZAF-47 acts on the post-entry stages and reduces EV-A71 protein expression, we hypothesized that ZAF-47 could be inhibiting RNA replication or protein translation, or possibly both, resulting in reduced viral protein expression.
Seeded 24-well plates, with 1.5 × 10^5 RD cells per well, were incubated overnight at 37 °C with 5% CO2. After which, the cells were subjected to EV-A71 infection (100 µL per well, MOI = 1) for 1 h. Reduced serum DMEM was used for mock-infection. The infected cells were then rinsed with PBS twice before treatment with 0.1% DMSO or ZAF-47 at various concentrations for 6 h at 37 °C with 5% CO2. After 6 h of drug treatment, cells were lysed with 100 µL of 1x Laemmli buffer and cell lysate was stored at −80 °C.
The cell lysate samples were subsequently boiled for 10 min at 100 °C and loaded on to a 10% acrylamide gel. SDS-PAGE was run for 2.5 h at 100V to separate the proteins. Bio Basic 10–250 kDa Protein Ladder BZ0011G (Bio Basic, Markham, Canada) was also loaded as a molecular-weight size marker. […]

The test system of another series is EV-A71. Briefly: Immunofluorescence-based preliminary screen of EV-A71-infected RD cells. The series is classed as cell-based, human enterovirus A71 (EV-A71) strain 41. As to conditions: EV-A71-infected RD cells (MOI = 1). The source says:
The screening assay was built using an immunofluorescence approach that was previously established and validated, with DAPI-stained nuclei accounting for total cell count and FITC-stained EV-A71 accounting for infected cell count upon EV-A71 infection and compound treatment. Both cell counts would then be used to calculate percentage infection and percentage inhibition to identify for hits. Before the screening platform can be employed to screen for potential antivirals, its robustness has to be appraised. In this study, Z-factor was calculated to assess the robustness of the screening platform. Firstly, seeded RD cells were either infected with EV-A71 (Multiplicity of Infection of 1) or mock-infected with media. The cells were then fixed, stained and imaged 12 h post-infection (hpi). The IFA images were analyzed with the Cell Profiler software to determine the infection rate of each well. Between the virus-infected and mock-infected wells, a clear distinction in infection rates could be observed (Figure 1a). […] In this case, the Z-factor, measured at 0.818, was indicative of a highly robust screening platform for high-throughput screening. The constructed screening platform was then employed to screen the compound library made up of 344 chemically synthesized novel compounds analogous to andrographolide. The compounds were screened at 10 µM with IFA images taken and analyzed to identify for hits. Treatment with 0.1% DMSO was used as vehicle control.
Seeded 96-well plates (Corning Inc., Corning, NY, USA), with 2 × 10^4 RD cells per well, were incubated overnight at 37 °C with 5% CO2. The seeded cells were then infected with EV-A71 (50 µL per well, MOI = 1) for 1 h at 37 °C with 5% CO2. The EV-A71-infected cells were then treated with the compound library at a final concentration of 10 µM for 12 h at 37 °C with 5% CO2. Treatment with 0.1% DMSO was used as vehicle control. Following treatment, cells were fixed with 100 µL of methanol (Sinopharm Chemical, Shanghai, China) for 15 min at −20°C and rinsed with 100 µL of 1x PBS for three times before performing indirect immunofluorescence assay (IFA). Anti-EV-A71 VP2 1° antibodies, MAB979 (Merck Millipore, Burlington, VT, USA), diluted 500-fold in PBS, was incubated with the fixed cells for 1 h at 37 °C. Cells were then rinsed thrice with PBS and incubated with anti-mouse FITC 2° antibodies (Merck Millipore), diluted 200-fold in PBS, for 1 h at 37 °C. After which, the cells were rinsed thrice with PBS before staining with DAPI (Sigma-Aldrich) at room temperature for 15 min. Cells were then rinsed thrice and preserved in 100 µL of PBS before imaging with the Operetta High-Content Imaging System and the Harmony High-Content Imaging and Analysis Software (Perkin Elmer, Waltham, MA, USA). Images of stained cells were captured with the DAPI and FITC fluorescence filters, from a pre-determined central position of each well and processed with the Cell Profiler software. […] The percentage infection (PI) for each well was calculated using the formula: Infected cell count/Total cell count × 100%. The percentage inhibition for each well was calculated using the formula PI0− PI/PI0 × 100% where PI0 refers to the percentage infection of wells treated with the vehicle control while PI refers to the percentage infection of wells treated with the compounds.

What is called inhibition is the change of the read-out against control, counted positive when it falls.

Take `CC(=O)OC[C@]1(C)C(=O)CC[C@@]2(C)C(C/C=C3/C(=O)OC[C@@H]3Oc3cccc4cccnc34)=C(C)CC[C@@H]21` [ZAF-47, (14β)-(8′-Quinolinoxy)-3-ketone-9-dehydro-17-hydro-19-acetoxy–andrographolide]: the “VP0 band intensity reduction in comparison to the control” value in series [1] (5 µM, normalized with β-actin) stood at 35 fold. For the same compound, the VP2 band result in series [1] (different concentrations) is recorded as “not with any ZAF-47 treatment”. Further, the “Nuclei Count” value in the series with EV-A71 (10 µM, 12 h, 0.1% DMSO wells 998) was 955. In the series on EV-A71 (Enterovirus A, EVA71, 12 h, read-out: Inhibition Rate (%)), the inhibition at 10 µM is 77.1%.

Values taken from paper PMC8880313, “Discovery of Novel Andrographolide Derivatives as Antiviral Inhibitors against Human Enterovirus A71” (Pharmaceuticals, 2022).
